Results published in patent US20060094661A1, “NY-ESO-1 peptide analogs” (priority 2004, published 2006).
Where a SMILES comes first, the peptide text is derived from it. [ ]: non-standard residue; d: D form. Nva = CCC[C@H](N)C(=O)O

Tests used:
HLA-A*0201 = HLA-A*0201 (Homo sapiens, UniProt P04439, D140Y/D185E/D98H/E176V/E277Q/G131W/G231S/I119V/I121R/I166T/I218V/L300P/L318F/N151K/N90K/P208A/P217A/Q86G/Q94H/R138H/R169H/T345S); experiment: ED50 (M)
Text: Table printed on a drawing sheet, Figure 27B
Head of the field: ED50 (M)

[1] = system: T cell lines specific for the native epitope (PRAME425-433); experiment: Cross reactivity of PRAME425-433 analogs: IFN-γ secretion from T cell line specific for native epitope; format: cell-based; conditions: analog peptide at approximately 0.3 μM; normalized to native peptide
Description: At 7 days after the last boost, the mice were sacrificed and a suspension of splenocytes prepared at 5×10^6 […] cells/ml in complete HL-1 medium. Cells were incubated with different concentrations of peptide for 48 hours in flat-bottomed 96-well plates (200 ul/well) and for an additional 24 hours with rIL-2 at 10 U/ml added to the wells. The supernatant was harvested and the concentration of IFN-gamma assessed by standard methods such as ELISA. […] The observed affinities of the analogs are reported as % binding (compared to the positive control) and ED50s. Stability of binding as half time of dissociation. Cross reactivity with the native epitope was assessed by using the analog peptides to stimulate IFG-gamma secretion from a T cell lines specific for the native epitope, essentially as described in Example 6. The data shown in FIGS. 26-28 were generated by stimulating with analog peptide at approximately 0.3 μM. […] In some cases the reported values are the average of two determinations.

Compound	EC50 (HLA-A*0201) [µM]	IFN-γ elicited, of that of the native peptide [1] [%]
CCC[C@H](NC(=O)CNC(=O)[C@@H](NC(=O)[C@H](CC(C)C)NC(=O)[C@H](Cc1c[nH]cn1)NC(=O)[C@H](CCC(N)=O)NC(=O)[C@H](CC(C)C)NC(=O)[C@H](CCC)NC(=O)[C@@H](N)CO)[C@@H](C)CC)C(=O)O [50 | Prame 425-433 (L426(Nva),L433(Nva)), S(Nva)LQHLIG(Nva)] (H-S[Nva]LQHLIG[Nva]-OH; N-terminus and C-terminus assumed)	2.94	
Lys P1 analog: PRAME425-433 analog with Lys for the Ser at the P1 position (KLLQHLIGL)		40
CCC[C@H](NC(=O)CNC(=O)[C@@H](NC(=O)[C@H](CC(C)C)NC(=O)[C@H](Cc1c[nH]cn1)NC(=O)[C@H](CCC(N)=O)NC(=O)[C@H](CC(C)C)NC(=O)[C@H](CCSC)NC(=O)[C@@H](N)CO)[C@@H](C)CC)C(=O)O [56 | Prame 425-433 (L426M,L433(Nva))] (H-SMLQHLIG[Nva]-OH; N-terminus and C-terminus assumed)	0.688	
